The record followed here is paper PMC7214099 (Cell reports, 2020).

In the assay the test system is IAV PA 1–192 aa endonuclease. In kind it is binding.

Turning to `O=C1c2c(O)c(=O)ccn2N([C@@H]2c3ccccc3SCc3c2ccc(F)c3F)[C@@H]2COCCN12` [BXA, Baloxavir acid], the “increase in thermostability of IAV endonuclease” value came out at 28.1 °C.
